One series has as its target β1AR (Homo sapiens, UniProt P08588). In words: β1AR-mediated cAMP production. Type of series: cell-based. To be noted: FIG. 21B. For orientation: cAMP levels reflect the balance of adenylyl cyclase and phosphodiesterase activity.
For series [1], the target named is T1, β2AR (Homo sapiens, UniProt P07550). In words: ISO-induced G protein-mediated cAMP production, endogenously expressed β2AR. Type of series: cell-based. To be noted: FIGS. 15A and 15B.
In series [2] the target is T1, β2AR. In words: 3H-FEN agonist binding to β2AR in cell membranes. The arrangement: host or cells: cell membranes.
Procedure: Accordingly, these 50 potential hits from the selection were tested for their ability to increase binding of a radiolabeled agonist, ^3H-fenoterol (^3H-FEN) to the β2AR in membrane preparations, both in the absence and presence of transducers (FIGS. 14E and 14F).
Another feature of allosteric molecules observed in both binding experiments is the “ceiling” effect.
Series [3] concerns the target β2AR (Homo sapiens, UniProt P07550, N187E). In words: ISO competition binding against 125I-CYP in presence of PAM, β2AR reconstituted in HDL particles. The following applies: ISO vs 125I-CYP.
The target in series [4] is T2, MORpp (Homo sapiens, UniProt P35372). In words: In vitro G protein GTPase assay, MORpp HDLs (Gi). The following applies: FIG. 11.
T2 sequence (P35372 with tags, fused parts or gaps): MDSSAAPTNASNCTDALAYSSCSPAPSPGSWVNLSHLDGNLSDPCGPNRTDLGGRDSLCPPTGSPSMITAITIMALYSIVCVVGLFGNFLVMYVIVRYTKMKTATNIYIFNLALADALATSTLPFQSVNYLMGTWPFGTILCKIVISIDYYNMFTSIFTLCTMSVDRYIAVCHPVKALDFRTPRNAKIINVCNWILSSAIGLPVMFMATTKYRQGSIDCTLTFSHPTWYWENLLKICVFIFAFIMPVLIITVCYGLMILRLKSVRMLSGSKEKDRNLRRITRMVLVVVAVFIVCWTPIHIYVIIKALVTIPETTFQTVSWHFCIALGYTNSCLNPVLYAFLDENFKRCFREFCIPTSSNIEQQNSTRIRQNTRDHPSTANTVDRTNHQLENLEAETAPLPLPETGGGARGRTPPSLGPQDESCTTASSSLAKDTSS
Procedure: (§1) G protein GTPase Assay: The GTPase activity of Gαs or Gαi was measured in vitro using the GTPase Glo Assay (Promega) with the following modifications. Final reaction buffer consisted of 20 mM HEPES, pH 7.4, 100 mM NaCl, 10 mM MgCl2, and 1 mg/mL BSA. HDL-β2AR (4 nM), −M2R (100 nM), or MOR (100 nM) was incubated in the absence or presence of the indicated agonist (5 μM) and βarr1 (1 μM) for 15 min at room temperature.
(§2) To test this, an in vitro GTPase activity assay was performed that can quantitatively measure agonist-induced receptor activation of G protein.
For series [5], the target named is T2, MORpp. In words: [3H]-Naloxone competition binding, sortase-ligated MORpp HDLs.
Procedure: (§3) Radioligand Binding: All equilibrium competition radioligand binding studies were conducted in a final volume of 200 μL containing HDL-receptor, radioligand, a titration of unlabeled competitor, and the presence or absence of the indicated transducer protein. All components were diluted in assay buffer containing 20 mM HEPES, pH 7.4, 100 mM NaCl, and 1 mg/mL bovine serum albumin (BSA). […] G protein or βarr1 were used at a final concentration of 100 nM or 1 μM, respectively, unless specified otherwise. Binding reactions proceeded at room temperature and were harvested onto glass-fiber filters (GFB) with 0.3% polyethyleneimine (PEI) using a 96-well Brandel harvester. Binding data were analyzed in GraphPad Prism using a sigmoidal dose-response curve fit, and differences in log IC50 values were analyzed by one-way ANOVA.
Series [6] concerns the target T3, M2Rpp (Homo sapiens, UniProt P08172).
T3 sequence (P08172 1-466): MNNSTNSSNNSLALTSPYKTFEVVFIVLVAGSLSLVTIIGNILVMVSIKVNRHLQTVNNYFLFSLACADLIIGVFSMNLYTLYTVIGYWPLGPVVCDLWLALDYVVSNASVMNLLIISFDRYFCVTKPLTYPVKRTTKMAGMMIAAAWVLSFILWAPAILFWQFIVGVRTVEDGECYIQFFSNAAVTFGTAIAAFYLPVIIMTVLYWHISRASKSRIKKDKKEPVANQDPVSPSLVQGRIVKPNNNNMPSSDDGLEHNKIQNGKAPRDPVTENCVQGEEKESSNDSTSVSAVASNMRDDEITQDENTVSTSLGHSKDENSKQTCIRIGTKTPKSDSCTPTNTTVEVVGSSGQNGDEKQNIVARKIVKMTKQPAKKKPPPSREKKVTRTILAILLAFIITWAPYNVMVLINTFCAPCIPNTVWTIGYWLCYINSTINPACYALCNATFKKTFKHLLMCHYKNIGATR
In words: [3H]-NMS competition binding, sortase-ligated M2Rpp HDLs.
Procedure: as §3

For series [7], the target named is T3, M2Rpp. Put plainly: In vitro G protein GTPase assay, M2Rpp HDLs (Gi). The following applies: FIG. 11.
Procedure: as §1, §2

Structures are written as SMILES. Bounds are passed on as bounds.

This note sets out measurements from patent US11866482B2, “System and method for homogenous GPCR phosphorylation and identification of beta-2 adrenergic receptor positive allosteric modulators” (Duke University, priority 2018, dated 2024).

Chain of β1AR (P08588 whole entry): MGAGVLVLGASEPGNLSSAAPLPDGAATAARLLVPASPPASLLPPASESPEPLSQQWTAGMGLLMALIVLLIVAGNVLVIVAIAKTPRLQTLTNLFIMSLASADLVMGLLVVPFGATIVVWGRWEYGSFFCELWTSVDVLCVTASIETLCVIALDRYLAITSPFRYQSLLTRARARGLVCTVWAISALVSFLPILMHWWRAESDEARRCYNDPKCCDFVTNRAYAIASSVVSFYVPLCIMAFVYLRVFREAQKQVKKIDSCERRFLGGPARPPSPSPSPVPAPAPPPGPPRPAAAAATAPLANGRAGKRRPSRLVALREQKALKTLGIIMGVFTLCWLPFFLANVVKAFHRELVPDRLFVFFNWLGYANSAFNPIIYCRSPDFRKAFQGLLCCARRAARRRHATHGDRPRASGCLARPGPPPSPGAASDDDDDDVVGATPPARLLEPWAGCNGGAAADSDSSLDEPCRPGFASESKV

As for `COc1ccc(Sc2ccc(S(=O)(=O)N(C)C(C)C)cc2C(=O)N[C@@H](CC(N)=O)Cc2ccc(C(C)(C)C)cc2)cc1` [Cmpd-6, (R)—N-(4-Amino-1-(4-(tert-butyl)phenyl)-4-oxobutan-2-yl)-5-(N-isopropyl-N-methylsulfamoyl)-2-((4-methoxyphenyl)thio)benzamide], the “changes in ISO dose response pattern of cAMP production” value at β1AR is given as “Marginal changes”.
Turning to `COc1ccc(Sc2ccc(S(=O)(=O)Nc3cccc(F)c3)cc2C(=O)N[C@@H](CC(N)=O)Cc2ccc(C(C)(C)C)cc2)cc1` [Cmpd-43, (R)—N-(4-Amino-1-(4-(tert-butyl)phenyl)-4-oxobutan-2-yl)-5-(N-(3-fluorophenyl)sulfamoyl)-2-((4-methoxyphenyl)thio)benzamide], the “effect on ISO-induced cAMP production” value on β2AR [1] is “increased the maximal response induced by ISO as well as potentiated the EC50 value”. In addition, the “increase in 3H-FEN binding to the β2AR” value at β2AR [2] is on record as “dose-dependently increase the binding”. At β2AR [3], the “potentiation of the IC50 value of ISO” value is listed as about 30 fold.
As for `C[C@@H](NC(=O)[C@@H](N)Cc1ccc(O)cc1)C(=O)NCC(=O)N(C)[C@@H](Cc1ccccc1)C(=O)NCCO` [DAMGO], the “G protein activation (GTP hydrolysis)” value on MORpp [4] is given as “increases G protein activation”. Also, the “increase in agonist affinity by βarr1” value on MORpp [5] came out at 2 fold. For the same compound, the “increase in agonist affinity induced by G protein” value at MORpp [5] (Gi heterotrimer) is over 100 fold.
In the case of `C[N+](C)(C)CCOC(N)=O` [carbachol], the “increase in agonist affinity by βarr1” value on M2Rpp [6] is on record as 57 fold. Further, the “increase in agonist affinity induced by G protein” value on M2Rpp [6] (Gi heterotrimer) is recorded as over 100 fold.
Consider `C[N+](C)(C)CC#CCOC1=NOCC1` [iperoxo], for which the “G protein activation (GTP hydrolysis)” value on M2Rpp [7] is “increases G protein activation”. The “effects of G protein and βarr on agonist affinity” value at M2Rpp [6] (FIGS. 9E and 9F) is “comparable effects of G protein and βarr”.
